We go through 1 compound from patent US20080275111A1, “Novel Use of Lignan Compounds” (priority 2005, published 2008).

For data set [1], the system named is COX-2. The data set can be described thus: COX-2 expression in LPS-activated microglia (Western blotting). Type of data set: cell-based, mouse. The settings on record: 1 μg/ml LPS, compound 2.5 and 10 μM, 16 or 24 hours. The source says:
In Example <6-2>, it was observed that the NO production induced by LPS in the tissue-cultured microglia of mouse was inhibited by the lignan compound of the present invention. NO is produced by iNOS enzyme of which expression is induced by activation of microglia. Therefore, the correlation between the reduction of NO production and inhibition of iNOS expression was examined. Additionally, a change in the amount of a protein COX-2 participating in the production of other inflammation-mediating materials was examined. For Western blotting analysis, tissue-cultured microglia was cultured in a 60 mm cell culture dish up to a concentration of 7.5×10^5 cells/ml. After 1 day of cultivation, the activation of microglia was induced by 1 μg/ml of LPS (Sigma) treatment. Simultaneously, the microglia was also treated with 2.5 and 10 μM of the lignan compound of the present invention together with LPS, and incubated for 16 or 24 hours. The incubated cell was washed with cold PBS 2 times, and then dissolved in a cold lysis buffer (1% SDS, 1 mM Na3VO4, 10 mM NaF, 10 mM Tris-Cl, pH 7.4 containing 1× protease inhibitors cocktail). […] Then, the amount of proteins was quantified according to BCA method. […]
NaCl containing 0.1% Tween 20) 3 times. […] Again, the membrane was then washed with TBS-T solution 3 times, and each band on the membrane was analyzed using ECL system (Sigma).
In general terms: Immunoblotting shows a protein as a band on a membrane.

The subject of data set [2] is cell line HT-22. The data set is described as follows: Brain cell apoptosis induced by glutamate in HT-22 (WST-1). Type of data set: cell-based. Conditions: HT-22, 5 mM glutamate 24 hours, compound 1, 2, 5 and 10 μM. As for the experimental part: A cell line HT-22 derived from the hippocampus was treated with 5 mM glutamate for 24 hours to induce apoptosis. As a control, the cell line HT-22 was not treated with glutamate. Then, the cell line HT-22 was treated with the lignan compound of the present invention at concentrations (1, 2, 5 and 10 μM) for 24 hours. The cell death was analyzed with WST-1(Roche).
(In general: Tetrazolium dyes change colour on reduction, which living cells bring about.)

The nature of data set [3]: Transmission test to the brain (brain uptake clearance, LC/MS). Type of data set: in vivo. The settings on record: male SD rat, 1 mg/kg intravenous. The procedure:
PE50 tubes are independently inserted into the femoral vein and femoral artery of a 250 g male SD rat, and syringes individually containing physiological saline solution and heparin (25 I.U.) are connected to tubes, respectively. The macelignan isolated and purified in Example 1 was dissolved in DMSO, and intravenously administered into the rat in the amount of 1 mg/kg. 400 μl of the blood samples were collected from the artery at 0.5, 1, 1.5 and 2 minutes after administration. After last sampling, the head of the rat was rapidly cut, and the brain tissue was extracted and slightly washed with physiological saline solution.
The blood sample prepared in the Example <7-1> was centrifuged at 3,000 rpm for 5 minutes to obtain 100 μl of blood plasma. 500 μl of ethylacetate was added into the blood plasma and the mixture was agitated with a vortex mixer for 10 minutes. Then, the mixture was centrifuged at 3,000 rpm for 5 minutes to obtain 400 μl of the supernatant. […]
The weight of the brain tissue sample prepared in the Example <7-1> was measured, and then saline solution corresponding to the weight of 2 times higher than that of the brain tissue was added into the brain tissue and the mixture was homogenized. […]
The blood sample and brain tissue sample treated in the Example <7-2> were introduced into the LC/MS system, and then the LC/MS analysis was performed according to the method of the Example <7-3> and the area of a macelignan peak was obtained on the chromatograph. The concentration of macelignan was calculated by using the area of the macelignan peak through the standard curve prepared in the Example <7-3>.
In a time-concentration graph of macelignan obtained in the blood sample through the Example <7-4>, AUC0^t (Area Under Curve: AUC) from 0 to the last sample time “tlast”, was obtained with a trapezoidal method (Schaum's Outline of Mathematica, MaGraw-Hill, 2000). Additionally, the amount(Xb) of macelignan was calculated using the concentration of the brain tissue sample. AUC of macelignan may be calculated using the mathematical equation 1. […]

Molecules are shown by their SMILES.

In general, clearance refers to a measure of how efficiently the substance is removed, as volume per time. The AUC is concentration integrated over time. Read a high AUC as high exposure. As for `COc1cc(C[C@H](C)[C@H](C)Cc2ccc3c(c2)OCO3)ccc1O` [macelignan, (8R,8′S)-7-(3,4-methylenedioxyphenyl)-7′-(4-hydroxy-3-methoxyphenyl)-8,8′-dimethylbutane], in data set [1], the “expression of COX-2 induced by LPS” value is “inhibited in a concentration dependent manner”. Besides, the “brain cell apoptosis induced by glutamate” value in data set [2] is recorded as “dose-dependently inhibited”. The clearance in data set [3] (brain and plasma, Xb/AUC, read-out: CLuptake (brain uptake clearance)) came to 0.203 ± 0.039 mL/min. In addition, the “Xb (amount of macelignan in the brain)” value in data set [3] (brain taken after the 2 minute sample) came to 7.90 ± 1.52 µg. Moreover, the AUC in data set [3] (plasma 0 to 2 minutes, trapezoidal method) is 648 ng·h/mL.
